Data as given in patent publication US4861763A, “17 α-(substituted-methyl)-17β-hydroxy/esterified hydroxy steroids and their progestational use” (Research Triangle Institute, priority 1988, dated 1989).
Read-outs that look alike come from different tables or passages of the source.

Experiments:
estrogen receptor = biological target: T1, estrogen receptor (Rattus norvegicus, UniProt P06211); assay: relative binding affinity (RBA) for estrogen receptor from immature rat uterus
T1 construct: estrogen receptor from immature rat uterus; from tissue; host or cells: uterus cytosol of immature rats
T1 sequence (P06211 1-600): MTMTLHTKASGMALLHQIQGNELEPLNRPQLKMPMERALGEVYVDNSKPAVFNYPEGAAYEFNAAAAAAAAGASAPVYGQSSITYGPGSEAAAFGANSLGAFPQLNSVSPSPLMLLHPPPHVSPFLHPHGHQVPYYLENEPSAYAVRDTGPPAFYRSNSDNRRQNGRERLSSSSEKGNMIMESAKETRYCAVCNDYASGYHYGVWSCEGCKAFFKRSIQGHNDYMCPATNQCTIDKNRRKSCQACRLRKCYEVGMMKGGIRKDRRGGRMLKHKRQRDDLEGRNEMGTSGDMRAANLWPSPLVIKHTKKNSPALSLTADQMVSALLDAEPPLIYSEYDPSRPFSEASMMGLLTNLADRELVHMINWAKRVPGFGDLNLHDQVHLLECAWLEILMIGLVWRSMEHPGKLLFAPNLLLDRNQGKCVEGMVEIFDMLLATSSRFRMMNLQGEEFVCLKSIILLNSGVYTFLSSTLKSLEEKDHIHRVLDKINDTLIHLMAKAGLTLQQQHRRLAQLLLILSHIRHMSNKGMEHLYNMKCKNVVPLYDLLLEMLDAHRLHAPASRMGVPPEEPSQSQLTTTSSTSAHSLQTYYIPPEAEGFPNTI
Protocol: (§1) concentrations) with cytosol containing the receptor and a tritiumlabeled
(§2) required to displace 50% of bound radioligand is determined graphically

progesterone receptor = biological target: T2, progesterone receptor (Oryctolagus cuniculus, UniProt P06186); assay: relative binding affinity (RBA) for progesterone receptor in cytosol of estrogen-primed immature rabbit uterus; settings: relative to progesterone = 100; average of 1-3 assays
T2 construct: cytosol obtained from estrogen-primedimmature rabbit uterus; from tissue; host or cells: uterus cytosol of estrogen-primed immature rabbits
T2 sequence (P06186 1-930): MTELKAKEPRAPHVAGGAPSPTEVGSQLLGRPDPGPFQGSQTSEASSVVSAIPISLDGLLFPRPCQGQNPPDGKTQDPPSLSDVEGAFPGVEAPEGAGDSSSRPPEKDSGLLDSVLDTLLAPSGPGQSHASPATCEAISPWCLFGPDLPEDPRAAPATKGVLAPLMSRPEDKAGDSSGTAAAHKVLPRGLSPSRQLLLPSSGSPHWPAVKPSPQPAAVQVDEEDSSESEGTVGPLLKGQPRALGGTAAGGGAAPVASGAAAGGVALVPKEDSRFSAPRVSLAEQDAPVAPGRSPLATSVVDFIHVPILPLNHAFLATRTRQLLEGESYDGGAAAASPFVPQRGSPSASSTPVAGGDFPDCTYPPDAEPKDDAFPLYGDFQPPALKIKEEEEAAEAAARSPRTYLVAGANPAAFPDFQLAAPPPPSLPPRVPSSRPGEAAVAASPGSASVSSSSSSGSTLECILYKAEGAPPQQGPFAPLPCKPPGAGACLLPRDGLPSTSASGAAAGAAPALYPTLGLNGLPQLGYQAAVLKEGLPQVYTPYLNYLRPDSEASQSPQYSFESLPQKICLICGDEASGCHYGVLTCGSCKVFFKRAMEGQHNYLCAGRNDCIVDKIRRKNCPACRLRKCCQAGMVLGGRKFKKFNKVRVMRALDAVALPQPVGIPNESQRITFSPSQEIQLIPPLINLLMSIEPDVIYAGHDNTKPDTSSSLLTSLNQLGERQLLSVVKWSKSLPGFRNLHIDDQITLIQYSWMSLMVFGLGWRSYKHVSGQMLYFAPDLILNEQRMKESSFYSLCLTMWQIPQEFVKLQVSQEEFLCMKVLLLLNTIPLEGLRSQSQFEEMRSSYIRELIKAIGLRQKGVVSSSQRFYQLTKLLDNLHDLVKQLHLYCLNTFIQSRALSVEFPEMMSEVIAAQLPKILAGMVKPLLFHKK
Protocol: as §1, §2

glucocorticoid receptor = biological target: T3, glucocorticoid receptor (Rattus norvegicus, UniProt P06536); assay: relative binding affinity (RBA) for glucocorticoid receptor from thymus of adrenalectomized rats; settings: for RBA for Glucocorticoid receptor: relative to dexamethasone = 100, average of 1-3 assays; for binding to the glucocorticoid receptor, times the RBA of dexamethasone: compared with dexamethasone
T3 construct: glucocorticoid receptor from thymus of adrenalectomized rats; from tissue; host or cells: thymus cytosol of adrenalectomized rats
T3 sequence (P06536 1-795): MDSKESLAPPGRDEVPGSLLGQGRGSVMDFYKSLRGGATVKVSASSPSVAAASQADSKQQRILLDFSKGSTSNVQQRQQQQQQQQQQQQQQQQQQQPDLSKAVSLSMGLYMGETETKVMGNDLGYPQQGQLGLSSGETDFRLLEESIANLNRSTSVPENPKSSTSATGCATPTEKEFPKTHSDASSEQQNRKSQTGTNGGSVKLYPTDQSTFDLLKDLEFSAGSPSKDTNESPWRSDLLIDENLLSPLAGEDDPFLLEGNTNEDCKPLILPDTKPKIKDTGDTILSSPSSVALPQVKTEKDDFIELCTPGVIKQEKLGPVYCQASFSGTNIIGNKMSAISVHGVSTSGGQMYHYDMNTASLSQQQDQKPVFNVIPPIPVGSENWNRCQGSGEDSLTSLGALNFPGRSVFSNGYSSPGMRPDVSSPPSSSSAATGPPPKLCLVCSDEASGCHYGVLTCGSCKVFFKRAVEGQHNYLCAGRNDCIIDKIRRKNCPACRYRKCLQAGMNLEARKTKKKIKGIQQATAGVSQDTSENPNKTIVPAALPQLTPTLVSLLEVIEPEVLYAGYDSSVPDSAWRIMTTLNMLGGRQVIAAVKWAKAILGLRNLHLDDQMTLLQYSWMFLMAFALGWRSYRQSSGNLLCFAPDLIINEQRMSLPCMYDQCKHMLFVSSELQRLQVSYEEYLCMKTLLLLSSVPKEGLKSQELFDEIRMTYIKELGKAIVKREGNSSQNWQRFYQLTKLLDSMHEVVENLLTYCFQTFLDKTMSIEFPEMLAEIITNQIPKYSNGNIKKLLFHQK
Protocol: as §1, §2

[1] = in vivo; cited from earlier work
[2] = vs levonorgestrel; cited from earlier work
[3] = test system: endometrial response due to subcutaneous administration of progesterone; assay: in vivo antiprogestational activity, oral (Clauberg test modified by McPhail); set-up: species or system rabbit
Source text: (§3) The antiprogestational activity of compound XVa was studied after both intrauterine and oral administration. […] The methodology used for the intrauterine test has been described by D. A. McGinty et al [Endocrinology, 24, 829 (1939)]. For oral administration of test compounds the method used was analogous to that of Clauberg [Clauberg, Zentr. Gynakol, 54, 2757 (1930)] as modified by McPhail [J. Physiol. (London) 83, 145 (1935)].
(§4) ^a Immature female rabbits are primed with estrogen and dosed with
(§5) stained and scored for endometrial proliferation according to McPhail.

[4] = test system: endometrial response due to subcutaneous administration of progesterone; assay: in vivo antiprogestational activity, intrauterine (McGinty test); set-up: species or system rabbit
Source text: as §3, §4, §5

[5] = relative to estradiol = 100, average of 1-3 assays

Row | RBA for Estrogen receptor (estrogen receptor; [5]) | RBA for Progestin receptor (progesterone receptor) | RBA for Glucocorticoid receptor (glucocorticoid receptor) | Compound | further results
1 | 0 | 71 | 143 | 11β-(4-Dimethylaminophenyl)-17β-hydroxy-17α-azidomethyl-4,9-estradien-3-one [XVb] | –
2 | 0 | 64 | 274 | 11β-(4-Dimethylaminophenyl)-17β-hydroxy-17α-benzyl-4,9-estradien-3-one [XVd] | binding to the glucocorticoid receptor, times the RBA of dexamethasone (glucocorticoid receptor): ca. 3 times
3 | 0 | 23 | 100 | 11β-(4-Dimethylaminophenyl)-17β-hydroxy-17α-prop-2-yn-1-yl- 4,9-estradien-3-one [XVe] | –

More lines, now with the values behind:

Row | Compound | RBA for Estrogen receptor (estrogen receptor; [5]) | RBA for Progestin receptor (progesterone receptor) | RBA for Glucocorticoid receptor (glucocorticoid receptor) | further results
4 | 11β-(4-Dimethylaminophenyl)-17β-hydroxy-17α-methoxymethyl-4,9-estradien-3-one [XVc] | 0 | 54 | 413 | binding to the glucocorticoid receptor, times the RBA of dexamethasone (glucocorticoid receptor): ca. 3 times
5 | C[C@@H]1C[C@H]2[C@@H]3CCC4=CC(=O)C=C[C@]4(C)[C@@]3(F)[C@@H](O)C[C@]2(C)[C@@]1(O)C(=O)CO [Dexamethasone, reference compound] | – | 0.1 | – | –
6 | CC(=O)[C@H]1CC[C@H]2[C@@H]3CCC4=CC(=O)CC[C@]4(C)[C@H]3CC[C@]12C [Progesterone, reference compound] | 0 | – | – | –
7 | C[C@]12CCC3=C4CCC(=O)C=C4CC[C@H]3[C@@H]1CC[C@@]2(O)CC#N [STS 557] | – | – | – | progestational activity [1]: strong progestational activity; oral potency as a gestagen relative to levonorgestrel [2]: ten times
8 | CN(C)c1ccc([C@H]2C[C@@]3(C)[C@@H](CC[C@@]3(O)CC#N)[C@@H]3CCC4=CC(=O)CCC4=C32)cc1 [XVa, 17α-Cyanomethyl-11β-(4-dimethylaminophenyl)-17β-hydroxy-4,9-estradien-3-one] | – | 33 | 74 | % Inhibition of Progestational Response ([3]; total dose per rabbit 5 mg): 7.8 ± 6.0%; % Inhibition of Progestational Response ([3]; total dose per rabbit 10 mg): 56.2 ± 7.1%; % Inhibition of Progestational Response ([3]; total dose per rabbit 20 mg): 79.1 ± 7.4%; RBA for Estrogen receptor (estrogen receptor): 0; % Inhibition of Progestational Response ([4]; total dose per rabbit 1.0 μg): 7.3 ± 4.5%; % Inhibition of Progestational Response ([4]; total dose per rabbit 5.0 μg): 26.7 ± 4.5%; % Inhibition of Progestational Response ([4]; total dose per rabbit 10.0 μg): 80.5 ± 9.8%; % Inhibition of Progestational Response ([4]; total dose per rabbit 40.0 μg): 96.3 ± 3.7%
